US20100196343A1, “COMPOSITIONS, METHODS, DEVICES, AND SYSTEMS FOR SKIN CARE” (priority 2008, published 2010)

Test system: skin blemishes
Experiment: clinical trial: blue light, white light or 4% BPO composition, number of skin blemishes
Format: in vivo
Settings: subjects (n=55 in trial)
Description: In another clinical trial, subjects (n=55) were exposed to (a) blue light], (b) white light, or (c) a composition comprising 4% (w/w) benzyol peroxide (BPO). Subjects were re-evaluated weekly during each treatment regime and results are illustrated in FIG. 25. The number of skin blemishes observed on subjects who received blue light therapy dropped by over 35% in the first week and by 55% in the second week. By comparison, the number of skin blemishes observe on subjects who received BPO dropped by just over 20% by the second week and by only 45% after eleven weeks.

## O=C(OOC(=O)c1ccccc1)c1ccccc1 [BPO, benzyol peroxide]
After eleven weeks
  number of skin blemishes dropped: 45%
By the second week
  number of skin blemishes dropped: over 20%
